Measured values from ChEMBL document CHEMBL4130478, “Improved proteolytic stability and potent activity against Leishmania infantum trypanothione reductase of α/β-peptide foldamers conjugated to cell-penetrating peptides” (Eur J Med Chem, 2017).
Calls of active or inactive are those of the source. The calls are words filed in the database; no cut-off is given here.

How the values were obtained:
Leishmania infantum [1] = test: Leishmanicidal activity against Leishmania infantum amastigotes at 25 uM after 24 hrs by propidium iodide staining based flow cytometry; format: functional, organism-based
Leishmania infantum [2] = test: Leishmanicidal activity against Leishmania infantum MCAN/ES/89/IPZ229/1/89 promastigotes at 25 uM after 24 hrs by propidium iodide staining based flow cytometry; format: functional, organism-based
Proteinase K = Proteinase K (Engyodontium album, UniProt P06873); test: Stability assessed as Tritirachium album proteinase K-mediated compound degradation by measuring half life at 50 uM by HPLC method; format: ADME; conditions: parengyodontium album
Sequence of Proteinase K (P06873 whole entry): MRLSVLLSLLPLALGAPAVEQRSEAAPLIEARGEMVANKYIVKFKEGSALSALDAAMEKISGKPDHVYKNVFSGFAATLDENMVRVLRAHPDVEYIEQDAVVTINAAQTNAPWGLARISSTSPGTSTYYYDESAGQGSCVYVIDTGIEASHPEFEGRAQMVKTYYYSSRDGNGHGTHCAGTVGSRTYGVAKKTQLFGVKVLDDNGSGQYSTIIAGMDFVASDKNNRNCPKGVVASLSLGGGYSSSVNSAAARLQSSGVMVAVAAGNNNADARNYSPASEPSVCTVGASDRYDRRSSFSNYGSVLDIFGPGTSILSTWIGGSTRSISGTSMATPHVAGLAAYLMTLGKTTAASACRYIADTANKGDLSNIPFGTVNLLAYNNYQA

Trypanothione reductase [3] = molecular target: T1, Trypanothione reductase (Leishmania infantum, UniProt A4HSF7); test: Inhibition of dimerization of HIS/FLAG tagged Leishmania infantum trypanothione reductase incubated for 16 hrs in presence of dimerization buffer by ELISA
T1 sequence (A4HSF7 whole entry): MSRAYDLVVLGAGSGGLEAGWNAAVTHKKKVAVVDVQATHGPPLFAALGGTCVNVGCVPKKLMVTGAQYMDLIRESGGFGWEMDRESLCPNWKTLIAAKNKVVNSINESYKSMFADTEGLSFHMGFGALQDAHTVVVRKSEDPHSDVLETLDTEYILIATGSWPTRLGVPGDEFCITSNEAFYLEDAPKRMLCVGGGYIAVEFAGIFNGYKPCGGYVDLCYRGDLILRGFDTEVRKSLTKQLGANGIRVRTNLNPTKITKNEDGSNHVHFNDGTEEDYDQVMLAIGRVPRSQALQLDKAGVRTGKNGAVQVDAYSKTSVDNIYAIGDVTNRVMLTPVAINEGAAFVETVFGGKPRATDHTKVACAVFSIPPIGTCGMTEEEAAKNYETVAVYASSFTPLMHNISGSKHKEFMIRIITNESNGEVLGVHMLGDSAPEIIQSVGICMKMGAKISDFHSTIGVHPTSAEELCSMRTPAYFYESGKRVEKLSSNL

Trypanothione reductase [4] = molecular target: T1, Trypanothione reductase; test: Inhibition of oxidoreductase activity of recombinant Leishmania infantum trypanothione reductase pre-incubated for 10 mins before T[S]2 and NADPH addition

| Compound | Activity (Leishmania infantum [1]) | Activity (Leishmania infantum [2]) | half-life at 50 µM (Proteinase K) [h] | IC50 (Trypanothione reductase [3]) [µM] | IC50 (Trypanothione reductase [4]) [µM] |
| --- | --- | --- | --- | --- | --- |
| CC[C@H](C)[C@H](NC(=O)CNC(=O)[C@@H](NC(=O)[C@@H](CO)NC(=O)[C@H](CCC(N)=O)NC(=O)[C@@H](NC(=O)[C@@H](NC(=O)[C@H](CCCCN)NC(=O)[C@@H]1CCCN1C(C)=O)[C@@H](C)CC)[C@@H](C)CC)C(C)C)C(N)=O | inactive | inactive |  |  |  |
| CCCC[C@H](NC(=O)C[C@H](CCCCN)NC(=O)[C@H](CCCC)NC(=O)C[C@H](CO)NC(=O)C[C@@H](NC(=O)CNC(=O)[C@@H](NC(=O)C[C@H](CO)NC(=O)C[C@H](CCC(N)=O)NC(=O)[C@@H](NC(=O)[C@@H](NC(=O)C[C@H](CCCCN)NC(=O)C[C@@H]1CCCN1C(C)=O)[C@@H](C)CC)[C@@H](C)CC)C(C)C)[C@@H](C)CC)C(N)=O | inactive | inactive | 5.28 | 15.5 | 9.28 |
| CCCC[C@H](NC(=O)[C@@H](CO)NC(=O)[C@@H](NC(=O)CNC(=O)[C@@H](NC(=O)[C@@H](CO)NC(=O)[C@H](CCC(N)=O)NC(=O)[C@@H](NC(=O)[C@@H](NC(=O)[C@H](CCCCN)NC(=O)[C@@H]1CCCN1C(C)=O)[C@@H](C)CC)[C@@H](C)CC)C(C)C)[C@@H](C)CC)C(N)=O | inactive | inactive |  |  |  |
| CCCC[C@H](NC(=O)[C@H](CCCCN)NC(=O)[C@H](CCCC)NC(=O)[C@@H](CO)NC(=O)[C@@H](NC(=O)CNC(=O)[C@@H](NC(=O)[C@@H](CO)NC(=O)[C@H](CCC(N)=O)NC(=O)[C@@H](NC(=O)[C@@H](NC(=O)[C@H](CCCCN)NC(=O)[C@@H]1CCCN1C(C)=O)[C@@H](C)CC)[C@@H](C)CC)C(C)C)[C@@H](C)CC)C(N)=O | inactive | inactive |  |  |  |
| CC[C@H](C)[C@H](NC(=O)CNC(=O)[C@@H](NC(=O)[C@H](CO)NC(=O)[C@H](CCC(N)=O)NC(=O)[C@@H](NC(=O)[C@@H](NC(=O)[C@H](CCCCN)NC(=O)[C@@H]1CCCN1C(C)=O)[C@@H](C)CC)[C@@H](C)CC)C(C)C)C(N)=O |  |  |  | 15.7 | 3.59 |
| CCCC[C@@H](CC(N)=O)NC(=O)[C@H](CCCCN)NC(=O)[C@H](CCCC)NC(=O)C[C@H](CO)NC(=O)[C@@H](NC(=O)CNC(=O)[C@@H](NC(=O)C[C@H](CO)NC(=O)[C@H](CCC(N)=O)NC(=O)[C@@H](NC(=O)C[C@H](NC(=O)[C@H](CCCCN)NC(=O)C[C@@H]1CCCN1C(C)=O)[C@@H](C)CC)[C@@H](C)CC)C(C)C)[C@@H](C)CC | inactive | inactive | 8.62 | 21.7 | 3.47 |
| CCCC[C@@H](CC(N)=O)NC(=O)[C@H](CCCCN)NC(=O)[C@H](CCCC)NC(=O)C[C@H](CO)NC(=O)C[C@H](NC(=O)CNC(=O)[C@@H](NC(=O)C[C@H](CO)NC(=O)[C@H](CCC(N)=O)NC(=O)[C@@H](NC(=O)[C@@H](NC(=O)C[C@H](CCCCN)NC(=O)C[C@@H]1CCCN1C(C)=O)[C@@H](C)CC)[C@@H](C)CC)C(C)C)[C@@H](C)CC | inactive | inactive | 2.18 | 18 | 2.08 |
| CC[C@H](C)[C@H](CC(=O)N[C@@H](CCC(N)=O)C(=O)N[C@@H](CO)C(=O)N[C@@H](CC(=O)NCC(=O)N[C@H](C(N)=O)[C@@H](C)CC)C(C)C)NC(=O)[C@@H](NC(=O)[C@H](CCCCN)NC(=O)[C@@H]1CCCN1C(C)=O)[C@@H](C)CC | inactive | inactive |  | 41.8 | > 75 |
| CCCC[C@H](NC(=O)[C@H](CO)NC(=O)[C@@H](NC(=O)C[C@H](C)NC(=O)[C@@H](NC(=O)[C@H](CO)NC(=O)[C@H](CCC(N)=O)NC(=O)C[C@@H](NC(=O)[C@@H](NC(=O)[C@H](CCCCN)NC(=O)[C@@H]1CCCN1C(C)=O)[C@@H](C)CC)[C@@H](C)CC)C(C)C)[C@@H](C)CC)C(N)=O | inactive | inactive |  | 47.3 | 28.5 |
| CCCC[C@H](NC(=O)[C@H](CCCCN)NC(=O)[C@H](CCCC)NC(=O)[C@H](CO)NC(=O)[C@@H](NC(=O)CNC(=O)C[C@H](NC(=O)[C@H](CO)NC(=O)[C@H](CCC(N)=O)NC(=O)[C@@H](NC(=O)C[C@H](NC(=O)[C@H](CCCCN)NC(=O)[C@@H]1CCCN1C(C)=O)[C@@H](C)CC)[C@@H](C)CC)C(C)C)[C@@H](C)CC)C(N)=O | inactive | inactive |  | 13.7 | 8.78 |
| CC[C@H](C)[C@H](NC(=O)C[C@H](C)NC(=O)[C@@H](NC(=O)[C@H](CO)NC(=O)[C@H](CCC(N)=O)NC(=O)C[C@@H](NC(=O)[C@@H](NC(=O)[C@H](CCCCN)NC(=O)C[C@@H]1CCCN1C(C)=O)[C@@H](C)CC)[C@@H](C)CC)C(C)C)C(=O)O | inactive | inactive |  | 50.4 | 39.8 |
| CCCC[C@H](NC(=O)[C@H](CO)NC(=O)[C@@H](NC(=O)CNC(=O)[C@@H](NC(=O)[C@H](CO)NC(=O)[C@H](CCC(N)=O)NC(=O)[C@@H](NC(=O)[C@@H](NC(=O)[C@H](CCCCN)NC(=O)[C@@H]1CCCN1C(C)=O)[C@@H](C)CC)[C@@H](C)CC)C(C)C)[C@@H](C)CC)C(N)=O |  |  |  | 4.21 | 0.82 |
| CC[C@H](C)[C@H](NC(=O)CNC(=O)[C@@H](NC(=O)C[C@H](CO)NC(=O)[C@H](CCC(N)=O)NC(=O)[C@@H](NC(=O)C[C@@H](NC(=O)[C@H](CCCCN)NC(=O)[C@@H]1CCCN1C(C)=O)[C@@H](C)CC)[C@@H](C)CC)C(C)C)C(N)=O | inactive | inactive | 3.97 | 22.3 | > 75 |
| CCCC[C@@H](CC(=O)N[C@@H](CCCCN)C(=O)N[C@@H](CCCC)C(N)=O)NC(=O)[C@H](CO)NC(=O)[C@@H](NC(=O)C[C@H](C)NC(=O)[C@@H](NC(=O)[C@H](CO)NC(=O)[C@H](CCC(N)=O)NC(=O)C[C@H](NC(=O)[C@@H](NC(=O)[C@H](CCCCN)NC(=O)C[C@@H]1CCCN1C(C)=O)[C@@H](C)CC)[C@@H](C)CC)C(C)C)[C@@H](C)CC |  |  | 0.383 | 13.9 | 2.69 |
| CCCC[C@@H](CC(=O)N[C@@H](CCCCN)C(=O)N[C@@H](CCCC)C(N)=O)NC(=O)[C@@H](CO)NC(=O)[C@@H](NC(=O)C[C@H](C)NC(=O)[C@@H](NC(=O)[C@@H](CO)NC(=O)[C@H](CCC(N)=O)NC(=O)C[C@H](NC(=O)[C@@H](NC(=O)[C@H](CCCCN)NC(=O)C[C@@H]1CCCN1C(C)=O)[C@@H](C)CC)[C@@H](C)CC)C(C)C)[C@@H](C)CC | inactive | inactive |  |  |  |
| CCCC[C@H](NC(=O)[C@H](CCCCN)NC(=O)[C@H](CCCC)NC(=O)[C@H](CO)NC(=O)[C@@H](NC(=O)CNC(=O)[C@@H](NC(=O)[C@H](CO)NC(=O)[C@H](CCC(N)=O)NC(=O)[C@@H](NC(=O)[C@@H](NC(=O)[C@H](CCCCN)NC(=O)[C@@H]1CCCN1C(C)=O)[C@@H](C)CC)[C@@H](C)CC)C(C)C)[C@@H](C)CC)C(N)=O |  |  | 0.383 | 10.3 | 1.2 |
| CCCC[C@@H](CC(=O)N[C@@H](CCCCN)C(=O)N[C@@H](CC(N)=O)C(N)=O)NC(=O)[C@H](CO)NC(=O)[C@@H](NC(=O)CNC(=O)C[C@@H](NC(=O)[C@H](CO)NC(=O)[C@H](CCC(N)=O)NC(=O)C(NC(=O)C[C@@H](NC(=O)[C@H](CCCCN)NC(=O)[C@@H]1CCCN1C(C)=O)[C@@H](C)CC)[C@@H](C)CC)C(C)C)[C@@H](C)CC (single isomer, unassigned) | inactive | inactive | < 0.25 | 9.72 | 18.2 |
| CCCC[C@@H](CC(=O)N[C@@H](CCCCN)C(=O)N[C@@H](CCCC)C(N)=O)NC(=O)[C@@H](CO)NC(=O)[C@@H](NC(=O)CNC(=O)C[C@H](NC(=O)[C@H](CO)NC(=O)[C@H](CCC(N)=O)NC(=O)C[C@H](NC(=O)[C@@H](NC(=O)[C@H](CCCCN)NC(=O)[C@@H]1CCCN1C(C)=O)[C@@H](C)CC)[C@@H](C)CC)C(C)C)[C@@H](C)CC | inactive | inactive |  |  |  |
| CCCC[C@@H](CC(=O)N[C@@H](CCCCN)C(=O)N[C@@H](CCCC)C(N)=O)NC(=O)[C@H](CO)NC(=O)[C@@H](NC(=O)CNC(=O)C[C@H](NC(=O)[C@H](CO)NC(=O)[C@H](CCC(N)=O)NC(=O)C[C@H](NC(=O)[C@@H](NC(=O)[C@H](CCCCN)NC(=O)[C@@H]1CCCN1C(C)=O)[C@@H](C)CC)[C@@H](C)CC)C(C)C)[C@@H](C)CC |  |  | 3.58 | 10.3 | 3.11 |
| CCCC[C@H](NC(=O)C[C@H](CCCCN)NC(=O)[C@H](CCCC)NC(=O)[C@H](CO)NC(=O)[C@@H](NC(=O)C[C@H](C)NC(=O)[C@@H](NC(=O)[C@H](CO)NC(=O)[C@H](CCC(N)=O)NC(=O)C[C@@H](NC(=O)[C@@H](NC(=O)[C@H](CCCCN)NC(=O)[C@@H]1CCCN1C(C)=O)[C@@H](C)CC)[C@@H](C)CC)C(C)C)[C@@H](C)CC)C(N)=O | inactive | inactive |  | 13.8 | 5.38 |
| CC[C@H](C)[C@H](CC(=O)N[C@H](C(=O)N[C@@H](CCC(N)=O)C(=O)N[C@@H](CO)C(=O)N[C@@H](CC(=O)NCC(=O)N[C@H](C(N)=O)[C@@H](C)CC)C(C)C)[C@@H](C)CC)NC(=O)[C@H](CCCCN)NC(=O)[C@@H]1CCCN1C(C)=O | inactive | inactive |  | 53 | > 75 |
